Experimental data: patent US10173968B2, “Bishydrazone-based antifungal agents” (University of Kentucky Research Foundation, priority 2016, dated 2019)
Like-named read-outs stand apart in the source and are kept apart here.

What was measured:
[1] = system: C. albicans strains (panel of seven); assay: Antifungal MIC, summary over the panel; assay type: cell-based, Candida albicans; settings: for antifungal activity in words: against all fungal strains tested
Procedure, shortened: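 Modified CLSI M27-A3 microdilution. Visual endpoint: complete inhibition against growth control.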

[2] = system: all bacterial strains tested; assay: Antibacterial MIC, summary over the panel; assay type: cell-based; settings: read-out: antibacterial MIC values
Protocol: MIC values were determined against a variety of Gram-positive (strains A-D) and Gram-negative (E-J) bacterial and mycobacterial (K) strains using the double-dilution method, as previously published. Preliminary screening was performed using 500 μM of each compound.

[3] = system: L. monocytogenes ATCC 19115; assay: Antibacterial MIC, double-dilution method; assay type: cell-based; settings: Listeria monocytogenes, ATCC19115, strain B, Gram-positive, read-out: MIC
Procedure, shortened: (§1)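 Step one: single-point test of each compound at 500 μM. Step two: MIC determination across doubling dilutions.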

B. subtilis 168 = assay: Antibacterial MIC, double-dilution method; assay type: cell-based; settings: Bacillus subtilis, strain A, Gram-positive
Procedure, shortened: as §1

E. cloacae ATCC 13047 = assay: Antibacterial MIC, double-dilution method; assay type: cell-based; settings: Enterobacter cloacae, ATCC13047, strain F, Gram-negative, read-out: MIC
Procedure, shortened: as §1

S. enterica ATCC 14028 = assay: Antibacterial MIC, double-dilution method; assay type: cell-based; settings: Salmonella enterica, ATCC14028, strain J, Gram-negative, read-out: MIC
Procedure, shortened: as §1

VRE = assay: Antibacterial MIC, double-dilution method; assay type: cell-based; settings: Enterococcus, strain D, Gram-positive, read-out: MIC
Procedure, shortened: as §1

MRSA = assay: Antibacterial MIC, double-dilution method; assay type: cell-based; settings: Staphylococcus aureus, strain C, Gram-positive, read-out: MIC
Procedure, shortened: as §1

P. aeruginosa ATCC 27853 = assay: Antibacterial MIC, double-dilution method; assay type: cell-based; settings: Pseudomonas aeruginosa, ATCC27853, strain I, Gram-negative, read-out: MIC
Procedure, shortened: as §1

K. pneumoniae ATCC 27736 = assay: Antibacterial MIC, double-dilution method; assay type: cell-based; settings: Klebsiella pneumoniae, ATCC27736, strain H, Gram-negative, read-out: MIC
Procedure, shortened: as §1

E. coli MC1061 = assay: Antibacterial MIC, double-dilution method; assay type: cell-based; settings: Escherichia coli, strain G, Gram-negative, read-out: MIC
Procedure, shortened: as §1

M. smegmatis MC2-155 = assay: Antibacterial MIC, double-dilution method; assay type: cell-based; settings: Mycolicibacterium smegmatis, MC2155, strain K, mycobacterial, read-out: MIC
Procedure, shortened: as §1

[4] = Mammalian cell cytotoxicity, resazurin; assay type: cell-based; settings: human
Protocol: Another important aspect to consider during the development of antimicrobial agents is their potential toxicity towards mammalian cells. Having established the potent antimicrobial activities of the bis(N-amidino)hydrazones and N-amidino-N′-aryl-bishydrazones against bacteria and fungi, the toxicity profile of these compounds was determined against two mammalian cell lines (A549 and BEAS-2B; FIGS. 4A-B). […]. Cytotoxicity assays were performed as previously described. The human lung carcinoma epithelial cells A549 and the normal human bronchial epithelial cells BEAS-2B were grown in F12-K and DMEM medium containing 10% fetal bovine serum (FBS) and 1% antibiotics, respectively. The confluent cells were trypsinized with 0.05%-trypsin-0.53 mM EDTA, centrifuged (1,200 rpm) and resuspended in fresh medium (F12-K or DMEM). The cells were seeded into 96-well microtiter plates at a density of 3,000 cells/well and were grown overnight. […] Triton X-100® (0.5%, v/v) gave complete loss of cell viability and was used as the positive control. The percent cell survival was calculated as: (test value/control value)×100, where control value represents cells+resazurin−drug, and test value represents cells+resazurin+drug.

C. albicans ATCC 90819 = assay: Antifungal MIC, CLSI M27-A3 microbroth dilution; assay type: cell-based, Candida albicans; settings: Candida albicans, ATCC90819, C. albicans ATCC 90819, resistant to FLC, ITC, and VOR, read-out: MIC
Protocol: (§2) In vitro MIC testing was performed according to the CLSI M27-A3 standard microbroth dilution methodology for the susceptibility testing of yeasts with minor modifications.

C. albicans ATCC 1003 = assay: Antifungal MIC, CLSI M27-A3 microbroth dilution; assay type: cell-based, Candida albicans; settings: Candida albicans, ATCC1003, read-out: MIC
Protocol: as §2

C. albicans ATCC 10231 = assay: Antifungal MIC, CLSI M27-A3 microbroth dilution; assay type: cell-based, Candida albicans; settings: Candida albicans, ATCC10231, C. albicans ATCC 10231, resistant to FLC, ITC, and VOR, read-out: MIC
Protocol: as §2

C. albicans ATCC 2310 = assay: Antifungal MIC, CLSI M27-A3 microbroth dilution; assay type: cell-based, Candida albicans; settings: Candida albicans, ATCC2310, C. albicans ATCC 2310, susceptible to FLC, ITC, and VOR, read-out: MIC
Protocol: as §2

C. albicans ATCC 2876 = assay: Antifungal MIC, CLSI M27-A3 microbroth dilution; assay type: cell-based, Candida albicans; settings: Candida albicans, ATCC2876, C. albicans ATCC 2876, susceptible to FLC, ITC, and VOR, read-out: MIC
Protocol: as §2

C. albicans ATCC 1237 = assay: Antifungal MIC, CLSI M27-A3 microbroth dilution; assay type: cell-based, Candida albicans; settings: Candida albicans, ATCC1237, C. albicans ATCC 1237, resistant to FLC, ITC, and VOR, read-out: MIC
Protocol: as §2

C. albicans ATCC 64124 = assay: Antifungal MIC, CLSI M27-A3 microbroth dilution; assay type: cell-based, Candida albicans; settings: Candida albicans, ATCC64124, C. albicans ATCC 64124, resistant to FLC, ITC, and VOR, read-out: MIC
Protocol: as §2

[5] = A549 lung carcinoma epithelial cells, A549, 24 h
[6] = BEAS-2B normal bronchial epithelial cells
[7] = C. albicans ATCC 1003, converted from μg/mL

SMILES	MIC ([3]; converted from μM) [µg/mL]	MIC ([3]; range 0.5 to 500 μM) [µM]	MIC (B. subtilis 168; converted from μM) [µg/mL]	MIC (B. subtilis 168; range 0.5 to 500 μM) [µM]	MIC (E. cloacae ATCC 13047; converted from μM) [µg/mL]	MIC (E. cloacae ATCC 13047; range 0.5 to 500 μM) [µM]	MIC (S. enterica ATCC 14028; converted from μM) [µg/mL]	MIC (S. enterica ATCC 14028; range 0.5 to 500 μM) [µM]	MIC (VRE; converted from μM) [µg/mL]	MIC (MRSA; converted from μM) [µg/mL]	MIC (P. aeruginosa ATCC 27853; converted from μM) [µg/mL]	MIC (P. aeruginosa ATCC 27853; range 0.5 to 500 μM) [µM]	MIC (K. pneumoniae ATCC 27736; converted from μM) [µg/mL]	MIC (K. pneumoniae ATCC 27736; range 0.5 to 500 μM) [µM]	MIC (E. coli MC1061; converted from μM) [µg/mL]	MIC (E. coli MC1061; range 0.5 to 500 μM) [µM]	MIC (M. smegmatis MC2-155; converted from μM) [µg/mL]	MIC (M. smegmatis MC2-155; range 0.5 to 500 μM) [µM]	MIC (C. albicans ATCC 90819; converted from μg/mL) [µM]	MIC (C. albicans ATCC 1003; [7]) [µM]	other results
Cl.N=C(N)N/N=C/c1ccc(-c2ccc(/C=N/Nc3ccc(Cl)cc3)cc2)cc1 [Compound 7Ad, (E)-2-((4′-((E)-(2-(4-Chlorophenyl)hydrazono)methyl)-[1,1′-biphenyl]-4-yl)methylene)hydrazine-1-carboximidamide monohydrochloride]	1.7	3.9	> 214	> 500	> 214	> 500	> 214	> 500	1.7	3.3	> 214	> 500	> 214	> 500	> 214	> 500	1.7	3.9	18.3	9.1	MIC ([1]; Candida albicans, all, most or majority of the fungal strains, read-out: MIC, span over C. albicans strains): 7.8 to 15.6 µg/mL; MIC [2]: 0.4 to 3.3 µg/mL; MIC (VRE; range 0.5 to 500 μM): 3.9 µM; MIC (MRSA; range 0.5 to 500 μM): 7.8 µM; IC50 at 24 h [4, 5]: 7.8 to 15.6 µg/mL; IC50 at 24 h [4, 6]: 7.8 to 15.6 µg/mL; MIC (C. albicans ATCC 90819): 7.8 µg/mL; MIC (C. albicans ATCC 1003): 3.9 µg/mL; MIC (C. albicans ATCC 10231; converted from μg/mL): 18.3 µM; MIC (C. albicans ATCC 10231): 7.8 µg/mL; MIC (C. albicans ATCC 2310; converted from μg/mL): 9.1 µM; MIC (C. albicans ATCC 2310): 3.9 µg/mL; MIC (C. albicans ATCC 2876; converted from μg/mL): 18.3 µM; MIC (C. albicans ATCC 2876): 7.8 µg/mL; MIC (C. albicans ATCC 1237; converted from μg/mL): 36.5 µM; MIC (C. albicans ATCC 1237): 15.6 µg/mL; MIC (C. albicans ATCC 64124; converted from μg/mL): 36.5 µM; MIC (C. albicans ATCC 64124): 15.6 µg/mL
Cl.Cl.N=C(N)N/N=C/c1ccc(-c2cccc(/C=N/NC(=N)N)c2)cc1 [Compound 3B, (2E,2′E)-2,2′-([1,1′-Biphenyl]-3,4′-diylbis(methanylylidene))bis(hydrazine-1-carboximidamide) dihydrochloride]	0.4	1	> 198	> 500	> 198	> 500	> 198	> 500	1.5	1.5	> 198	> 500	> 198	> 500	> 198	> 500	0.4	1	9.9	9.9	antifungal activity in words [1]: excellent antifungal activities; MIC [2]: 0.4 to 3.3 µg/mL; MIC (VRE; range 0.5 to 500 μM): 3.9 µM; MIC (MRSA; range 0.5 to 500 μM): 3.9 µM; IC50 at 24 h [4, 5]: 7.8 to 15.6 µg/mL; IC50 at 24 h [4, 6]: 7.8 to 15.6 µg/mL; MIC (C. albicans ATCC 90819): 3.9 µg/mL; MIC (C. albicans ATCC 1003): 3.9 µg/mL; MIC (C. albicans ATCC 10231; converted from μg/mL): 9.9 µM; MIC (C. albicans ATCC 10231): 3.9 µg/mL; MIC (C. albicans ATCC 2310; converted from μg/mL): 9.9 µM; MIC (C. albicans ATCC 2310): 3.9 µg/mL; MIC (C. albicans ATCC 2876; converted from μg/mL): 9.9 µM; MIC (C. albicans ATCC 2876): 3.9 µg/mL; MIC (C. albicans ATCC 1237; converted from μg/mL): 9.9 µM; MIC (C. albicans ATCC 1237): 3.9 µg/mL; MIC (C. albicans ATCC 64124; converted from μg/mL): 9.9 µM; MIC (C. albicans ATCC 64124): 3.9 µg/mL
Cl.N=C(N)N/N=C/c1ccc(-c2ccc(/C=N/Nc3ccc(F)cc3F)cc2)cc1 [Compound 7Af, (E)-2-((4′-((E)-(2-(2,4-Difluorophenyl)hydrazono)methyl)-[1,1′-biphenyl]-4-yl)methylene) hydrazine-1-carboximidamide, monohydrochloride]	0.9 to 1.7	2 to 3.9	> 214	> 500	> 214	> 500	> 214	> 500	1.7	1.7	> 214	> 500	> 214	> 500	> 214	> 500	0.9 to 1.7	2 to 3.9	18.2	4.5	antifungal activity in words [1]: excellent antifungal activities; MIC [2]: 0.4 to 3.3 µg/mL; MIC (VRE; range 0.5 to 500 μM): 3.9 µM; MIC (MRSA; range 0.5 to 500 μM): 3.9 µM; IC50 at 24 h [4, 5]: 7.8 to 15.6 µg/mL; IC50 at 24 h [4, 6]: 7.8 to 15.6 µg/mL; MIC (C. albicans ATCC 90819): 7.8 µg/mL; MIC (C. albicans ATCC 1003): 2 µg/mL; MIC (C. albicans ATCC 10231; converted from μg/mL): 2.3 µM; MIC (C. albicans ATCC 10231): 1 µg/mL; MIC (C. albicans ATCC 2310; converted from μg/mL): 9.1 µM; MIC (C. albicans ATCC 2310): 3.9 µg/mL; MIC (C. albicans ATCC 2876; converted from μg/mL): 9.1 µM; MIC (C. albicans ATCC 2876): 3.9 µg/mL; MIC (C. albicans ATCC 1237; converted from μg/mL): 9.1 µM; MIC (C. albicans ATCC 1237): 3.9 µg/mL; MIC (C. albicans ATCC 64124; converted from μg/mL): 9.1 µM; MIC (C. albicans ATCC 64124): 3.9 µg/mL
Cl.N=C(N)N/N=C/c1ccc(-c2ccc(C=NNc3ccccc3Cl)cc2)cc1 (mixture of isomers) [Compound 7Aa, E)-2-((4′-((E and Z)-(2-(2-Chlorophenyl)hydrazono)methyl)-[1,1′-biphenyl]-4-yl)methylene)hydrazine-1-carboximidamide monohydrochloride]	0.4 to 0.9	1 to 2	> 215	> 500	> 215	> 500	> 215	> 500	0.9	0.9	> 215	> 500	> 215	> 500	> 215	> 500	1.7	3.9	4.6	4.6	antifungal activity in words [1]: excellent antifungal activities; MIC (C. albicans ATCC 10231; converted from μg/mL): 4.6 µM; MIC (C. albicans ATCC 2310; converted from μg/mL): 4.6 µM; MIC (C. albicans ATCC 2876; converted from μg/mL): 4.6 µM; MIC (C. albicans ATCC 1237; converted from μg/mL): 9.2 µM; MIC (C. albicans ATCC 1237): 3.9 µg/mL; MIC (C. albicans ATCC 64124; converted from μg/mL): 9.2 µM; MIC (C. albicans ATCC 64124): 3.9 µg/mL
